According to paper PMC11724841 (Communications Biology, 2025):

Columns and labels:
iso-3 HiPIP = molecular target: T1, iso-3 HiPIP (Halorhodospira halophila, UniProt A1WXH6); assay: cryo-EM structure, […] Å; type: binding; conditions: native complex; functional N-terminal domain
T1 sequence (A1WXH6 26-145): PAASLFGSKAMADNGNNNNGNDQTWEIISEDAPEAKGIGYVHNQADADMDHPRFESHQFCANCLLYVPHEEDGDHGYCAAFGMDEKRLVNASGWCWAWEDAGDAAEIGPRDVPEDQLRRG

[1] = molecular target: Hlr. halophila RC (in LH1–RC–HiPIP complex) (Halorhodospira halophila, UniProt A1WXF6+A1WXF7); assay: cryo-EM structure, […] Å; type: binding; conditions: native complex
Hlr. halophila RC (in LH1–RC–HiPIP complex), sequence (A1WXF7 1-276): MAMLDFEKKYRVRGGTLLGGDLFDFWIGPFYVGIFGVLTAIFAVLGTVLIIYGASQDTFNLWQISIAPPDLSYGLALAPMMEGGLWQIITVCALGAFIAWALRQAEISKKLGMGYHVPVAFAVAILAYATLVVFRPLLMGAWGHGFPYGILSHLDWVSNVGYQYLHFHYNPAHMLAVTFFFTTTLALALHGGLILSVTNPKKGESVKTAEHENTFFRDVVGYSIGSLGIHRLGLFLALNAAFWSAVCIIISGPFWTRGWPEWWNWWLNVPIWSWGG
Hlr. halophila RC (in LH1–RC–HiPIP complex), sequence (A1WXF6 1-323): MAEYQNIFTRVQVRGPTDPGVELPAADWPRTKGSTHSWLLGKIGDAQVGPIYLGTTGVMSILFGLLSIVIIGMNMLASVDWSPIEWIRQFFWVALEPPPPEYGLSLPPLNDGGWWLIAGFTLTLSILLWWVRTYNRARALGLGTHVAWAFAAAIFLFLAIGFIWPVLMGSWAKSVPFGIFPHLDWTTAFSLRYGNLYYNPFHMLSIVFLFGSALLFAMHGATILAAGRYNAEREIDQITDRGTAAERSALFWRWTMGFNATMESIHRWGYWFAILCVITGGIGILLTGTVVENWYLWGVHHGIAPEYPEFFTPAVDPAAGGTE
Hlr. halophila RC (in LH1–RC–HiPIP complex), sequence (A1WXI3 1-278 partner): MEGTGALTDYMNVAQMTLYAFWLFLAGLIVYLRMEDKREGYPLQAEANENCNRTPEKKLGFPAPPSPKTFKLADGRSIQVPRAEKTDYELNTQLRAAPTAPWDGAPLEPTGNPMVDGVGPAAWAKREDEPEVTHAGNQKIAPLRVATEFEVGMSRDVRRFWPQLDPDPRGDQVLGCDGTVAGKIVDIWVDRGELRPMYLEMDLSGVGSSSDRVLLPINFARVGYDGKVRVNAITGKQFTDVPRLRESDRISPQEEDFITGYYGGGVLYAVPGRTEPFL
Hlr. halophila RC (in LH1–RC–HiPIP complex), sequence (A1WXF5 26-362 partner): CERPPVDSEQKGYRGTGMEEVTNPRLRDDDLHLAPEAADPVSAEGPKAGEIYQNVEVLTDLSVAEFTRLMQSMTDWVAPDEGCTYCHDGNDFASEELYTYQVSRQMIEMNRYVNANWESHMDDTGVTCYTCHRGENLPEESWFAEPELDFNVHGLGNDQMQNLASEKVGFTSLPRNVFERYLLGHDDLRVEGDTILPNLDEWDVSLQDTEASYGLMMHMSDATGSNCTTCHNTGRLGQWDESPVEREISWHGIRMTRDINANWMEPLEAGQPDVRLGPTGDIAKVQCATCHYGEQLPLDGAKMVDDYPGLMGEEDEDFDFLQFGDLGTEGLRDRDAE

[2] = molecular target: Halorhodospira halophila LH1–RC core complex (Halorhodospira halophila strain BN9622); assay: cryo-EM structure

[S]12[Fe]3[S]4[Fe]1[S]1[Fe]2[S]3[Fe]41 [4Fe–4S, 4Fe–4S cluster] was tested, and the “cryo-EM structure, 2.44 Å” value (iso-3 HiPIP) was “N-terminal functional portion containing the 4Fe–4S cluster”.
For CC[C@H]1c2cc3[nH]c4c(c3C)C(=O)[C@H](C(=O)OC)c4c3nc(cc4[nH]c(cc(n2)[C@@H]1C)c(C(C)=O)c4C)[C@@H](C)[C@@H]3CCC(=O)OC/C=C(\C)CCC[C@H](C)CCC[C@H](C)CCCC(C)C [BPhe], the “cryo-EM structure, 2.44 Å” value ([1]; RC pigment, printed only as BPhe) was “BPhe, orange sticks”.
For CC(C)=CCC/C(C)=C/CC/C(C)=C/CC/C(C)=C/CC/C(C)=C/CC/C(C)=C/CC/C(C)=C/CC/C(C)=C/CC1=C(C)C(=O)c2ccccc2C1=O [MQ-8, menaquinone-8], the “cryo-EM structure, 2.44 Å” value ([1]; QA site) was “one MQ-8 and one UQ-8 were identified unambiguously at the RC QA and QB sites”.
COC1=C(OC)C(=O)C(C/C=C(\C)CC/C=C(\C)CC/C=C(\C)CC/C=C(\C)CC/C=C(\C)CC/C=C(\C)CC/C=C(\C)CCC=C(C)C)=C(C)C1=O [UQ-8, ubiquinone-8] was tested, and the “cryo-EM structure, 2.44 Å” value ([1]; QB site) was “one MQ-8 and one UQ-8 were identified unambiguously at the RC QA and QB sites”.
With “Halorhodospira halophila iso-3 high-potential iron–sulfur protein (HiPIP) (natural protein)” the percent of LH1–RC particles with bound HiPIP [2] was 66.7%.
